Calls of active or inactive are those of the source. The calls are words filed in the database; no cut-off is given here.
Experiments:
[1] = Induction of ONOO-induced CO release in PBS buffer at pH 7.4 at 100 uM by HPLC analysis; assay type: functional
[2] = Induction of H2O2-induced CO release in PBS buffer at pH 7.4 at 100 uM by HPLC analysis; assay type: functional
[3] = system: Mus musculus; test: Anti-parkinson activity in MPTP-induced male C57BL/6J mouse model assessed as increase in distance traveled in open arms at 6 mg/kg, iv pretreated with compound for 1 day followed by MPTP-induction for 2 to 9 days and measured after 10 days by elevated plus maze test; assay type: functional, organism-based; conditions: time 10.0 day
[4] = system: Mus musculus; test: Anti-parkinson activity in MPTP-induced male C57BL/6J mouse model assessed as improvement in hindlimb clasping reflex at 6 mg/kg, iv pretreated with compound for 1 to 11 days followed by MPTP-induction for 1 to 5 days and measured on day 24 by hindlimb clasping test; assay type: functional, organism-based; conditions: time 24.0 day
[5] = system: Mus musculus; test: Anti-parkinson activity in MPTP-induced male C57BL/6J mouse model assessed as decrease in […] expression in midbrain at 6 mg/kg, iv pretreated with compound for 1 to 11 days followed by MPTP-induction for 1 to 5 days and measured on day 26 by Western blot analysis; assay type: functional, organism-based; conditions: time 26.0 day
[6] = Induction of ONOO-induced CO release in PBS buffer at pH 7.4 assessed as retention time at 100 uM by gas chromatography analysis; assay type: functional
[7] = system: Mus musculus; test: Anti-parkinson activity in MPTP-induced male C57BL/6J mouse model assessed as increase in GPX4 expression in substantia nigra pars compacta at 6 mg/kg, iv pretreated with compound for 1 to 11 days followed by MPTP-induction for 1 to 5 days and measured on day 26 by immunostaining based analysis; assay type: functional, organism-based; conditions: time 26.0 day
[8] = Induction of H2O2-induced CO release in PBS buffer at pH 7.4 assessed as increase in fluorescence intensity at 100 uM incubated for 30 min by gas detector analysis; assay type: functional
[9] = system: Mus musculus; test: Anti-parkinson activity in MPTP-induced male C57BL/6J mouse model assessed as increase in total number of fecal pellets production at 6 mg/kg, iv pretreated with compound for 1 day followed by MPTP-induction for 2 to 9 days and measured after 10 days by elevated plus maze test; assay type: functional, organism-based; conditions: time 10.0 day
[10] = system: Mus musculus; test: Anti-parkinson activity in MPTP-induced male C57BL/6J mouse model assessed as increase in TH level in substantia nigra pars compacta at 6 mg/kg, iv pretreated with compound for 1 to 11 days followed by MPTP-induction for 1 to 5 days and measured on day 26 by immunofluorescence analysis; assay type: functional, organism-based; conditions: time 26.0 day
[11] = system: Mus musculus; test: Anti-parkinson activity in MPTP-induced male C57BL/6J mouse model assessed as increase in total distance traveled at 6 mg/kg, iv pretreated with compound for 1 day followed by MPTP-induction for 2 to 9 days and measured after 10 days by open field test; assay type: functional, organism-based; conditions: time 10.0 day
[12] = system: SH-SY5Y; test: Inhibition of ferroptosis in MPP+-induced human SH-SY5Y cells assessed as decrease in intracellular ONOO release by measuring fluorescence intensity at 10 uM pretreated with MPP+ for 20 hrs followed by compound treatment for 2 hrs by HK-green-4I probe based confocal microscopic analysis; assay type: functional, cell-based
[13] = system: SH-SY5Y; test: Inhibition of ferroptosis in MPP+-induced human SH-SY5Y cells assessed as increase in GPX4 level by Western blot analysis; assay type: functional, cell-based
[14] = system: SH-SY5Y; test: Inhibition of ferroptosis in MPP+-induced human SH-SY5Y cells assessed as induction of CO release by measuring increase in fluorescent intensity at 10 uM pretreated with MPP+ for 20 hrs followed by compound treatment for 30 mins by COP490 probe based confocal microscopic analysis; assay type: functional, cell-based
[15] = system: Mus musculus; test: Anti-parkinson activity in MPTP-induced male C57BL/6J mouse model assessed as increase in TH expression in substantia nigra pars compacta at 6 mg/kg, iv pretreated with compound for 1 to 11 days followed by MPTP-induction for 1 to 5 days and measured on day 26 by immunostaining based analysis; assay type: functional, organism-based; conditions: time 26.0 day
[16] = system: Mus musculus; test: Anti-parkinson activity in MPTP-induced male C57BL/6J mouse model assessed as increase in GPX4 expression in midbrain at 6 mg/kg, iv pretreated with compound for 1 to 11 days followed by MPTP-induction for 1 to 5 days and measured on day 26 by Western blot analysis; assay type: functional, organism-based; conditions: time 26.0 day
[17] = system: Mus musculus; test: Anti-parkinson activity in MPTP-induced male C57BL/6J mouse model assessed as increase in SLC7A11 expression in midbrain at 6 mg/kg, iv pretreated with compound for 1 to 11 days followed by MPTP-induction for 1 to 5 days and measured on day 26 by Western blot analysis; assay type: functional, organism-based; conditions: time 26.0 day
[18] = Induction of ONOO-induced CO release in PBS buffer at pH 7.4 at 100 uM by gold-standard CO-myoglobin assay; assay type: functional
[19] = Induction of H2O2-induced CO release in PBS buffer at pH 7.4 assessed as retention time at 100 uM by gas chromatography analysis; assay type: functional
[20] = Induction of ONOO-induced CO release in PBS buffer at pH 7.4 at 100 uM in presence of PdCl2 by fluorescence based analysis; assay type: functional
[21] = system: Mus musculus; test: Anti-parkinson activity in MPTP-induced male C57BL/6J mouse model assessed as decrease in phosphorylated alpha-synuclein level in midbrain at 6 mg/kg, iv pretreated with compound for 1 to 11 days followed by MPTP-induction for 1 to 5 days and measured on day 26 by Western blot analysis; assay type: functional, organism-based; conditions: time 26.0 day
[22] = system: Mus musculus; test: Anti-parkinson activity in MPTP-induced male C57BL/6J mouse model assessed as reduction in 4-HNE level in midbrain at 6 mg/kg, iv pretreated with compound for 1 to 11 days followed by MPTP-induction for 1 to 5 days and measured on day 26 by Western blot analysis; assay type: functional, organism-based; conditions: time 26.0 day
[23] = system: SH-SY5Y; test: Inhibition of ferroptosis in MPP+-induced human SH-SY5Y cells assessed as reduction in 4-HNE level by Western blot analysis; assay type: functional, cell-based
[24] = system: SH-SY5Y; test: Inhibition of ferroptosis in MPP+-induced human SH-SY5Y cells assessed as decrease in intracellular Fe2+ release by measuring fluorescence intensity at 10 uM pretreated with MPP+ for 20 hrs followed by compound treatment for 2 hrs by FerroOrange probe based confocal microscopic analysis; assay type: functional, cell-based
[25] = system: Mus musculus; test: Anti-parkinson activity in MPTP-induced male C57BL/6J mouse model assessed as increase in frequency of open arms entries at 6 mg/kg, iv pretreated with compound for 1 day followed by MPTP-induction for 2 to 9 days and measured after 10 days by elevated plus maze test; assay type: functional, organism-based; conditions: time 10.0 day
[26] = system: Mus musculus; test: Anti-parkinson activity in MPTP-induced male C57BL/6J mouse model assessed as reduction in free ferrous iron level in midbrain at 6 mg/kg, iv pretreated with compound for 1 to 11 days followed by MPTP-induction for 1 to 5 days and measured on day 21; assay type: functional, organism-based; conditions: time 21.0 day
[27] = Induction of ONOO-induced CO release in PBS buffer at pH 7.4 assessed as increase in fluorescence intensity at 100 uM incubated for 30 min by gas detector analysis; assay type: functional
[28] = system: Mus musculus; test: Anti-parkinson activity in MPTP-induced male C57BL/6J mouse model assessed as decrease in total alpha-synuclein level in midbrain at 6 mg/kg, iv pretreated with compound for 1 to 11 days followed by MPTP-induction for 1 to 5 days and measured on day 26 by Western blot analysis; assay type: functional, organism-based; conditions: time 26.0 day
[29] = system: Mus musculus; test: Anti-parkinson activity in MPTP-induced male C57BL/6J mouse model assessed as increase in mean speed at 6 mg/kg, iv pretreated with compound for 1 day followed by MPTP-induction for 2 to 9 days and measured after 10 days by open field test; assay type: functional, organism-based; conditions: time 10.0 day
[30] = system: Mus musculus; test: Anti-parkinson activity in MPTP-induced male C57BL/6J mouse model assessed as decrease in descending time at 6 mg/kg, iv pretreated with compound for 1 to 11 days followed by MPTP-induction for 1 to 5 days and measured on day 24 by pole test; assay type: functional, organism-based; conditions: time 24.0 day
[31] = system: SH-SY5Y; test: Inhibition of ferroptosis in MPP+-induced human SH-SY5Y cells assessed as reduction in DMT1 level by Western blot analysis; assay type: functional, cell-based
[32] = system: Mus musculus; test: Anti-parkinson activity in MPTP-induced male C57BL/6J mouse model assessed as reduction in TFRC level in midbrain at 6 mg/kg, iv pretreated with compound for 1 to 11 days followed by MPTP-induction for 1 to 5 days and measured on day 21; assay type: functional, organism-based; conditions: time 21.0 day
[33] = system: Mus musculus; test: Anti-parkinson activity in MPTP-induced male C57BL/6J mouse model assessed as reduction in DMT1 level in midbrain at 6 mg/kg, iv pretreated with compound for 1 to 11 days followed by MPTP-induction for 1 to 5 days and measured on day 21; assay type: functional, organism-based; conditions: time 21.0 day
[34] = system: Mus musculus; test: Anti-parkinson activity in MPTP-induced male C57BL/6J mouse model assessed as reduction in NCOA4 level in midbrain at 6 mg/kg, iv pretreated with compound for 1 to 11 days followed by MPTP-induction for 1 to 5 days and measured on day 21; assay type: functional, organism-based; conditions: time 21.0 day
[35] = system: Mus musculus; test: Anti-parkinson activity in MPTP-induced male C57BL/6J mouse model assessed as increase in TH level in substantia nigra pars compacta at 6 mg/kg, iv pretreated with compound for 1 to 11 days followed by MPTP-induction for 1 to 5 days and measured on day 26 by Western blot analysis; assay type: functional, organism-based; conditions: time 26.0 day
[36] = system: Mus musculus; test: Anti-parkinson activity in MPTP-induced male C57BL/6J mouse model assessed as increase in latency period at 6 mg/kg, iv pretreated with compound for 1 to 11 days followed by MPTP-induction for 1 to 5 days and measured on day 24 by rotarod test; assay type: functional, organism-based; conditions: time 24.0 day
[37] = system: Mus musculus; test: Anti-parkinson activity in MPTP-induced male C57BL/6J mouse model assessed as reduction in MDA level in midbrain at 6 mg/kg, iv pretreated with compound for 1 to 11 days followed by MPTP-induction for 1 to 5 days and measured on day 26 by Western blot analysis; assay type: functional, organism-based; conditions: time 26.0 day

CC(=O)c1cc(F)ccc1O
Activity [1]: Active | Activity [2]: Active

COC(=O)C(=O)OC1(C)C(=O)Oc2ccc(F)cc21 (configuration not stated)
Activity [3]: Active | Activity [4]: Active | Activity [5]: Active | Retention time [6]: 1.96 min | Activity [7]: Active | Activity [8]: Active | Activity [9]: Active | Activity [10]: Active | Activity [11]: Active | inhibition [12]: Active | inhibition [13]: Active | inhibition [14]: Active | Activity [15]: Active | Activity [16]: Active | Activity [17]: Active | Activity [18]: Active | Retention time [19]: 3.86 min | Activity [20]: Weak_effect | Activity [21]: Active | Activity [22]: Active | inhibition [23]: Active | inhibition [24]: Active | Activity [25]: Active | Activity [26]: Active | Activity [27]: Active | Activity [28]: Active | Activity [29]: Active | Activity [30]: Active | inhibition [31]: Active | Activity [32]: Active | Activity [33]: Active | Activity [34]: Active | Activity [35]: Active | Activity [36]: Active | Activity [37]: Active

Source: ChEMBL document CHEMBL6153106, “Synergistic Anti-Ferroptosis with a Minimalistic, Peroxide-Triggered Carbon Monoxide Donor for Parkinson's Disease” (J Med Chem, 2025)
